In patent US5047340A, “LAC+ saccharomyces cerevisiae” (The University of Kentucky Research Foundation, priority 1988, dated 1991):
Several values for one entry are separate records, joined by “and”; a condition that tells them apart may be missing. Identical values can stand only once.

What was measured:
[1] = test system: lactose transport in S. cerevisiae L1582/pKR1B-LAC4-1; assay: Lactose transport ([14C]lactose uptake) in Lac+ S. cerevisiae; assay type: cell-based; settings: for inhibition of lactose transport (stereospecificity, in words): summary of Table 1 (L1582/pKR1B-LAC4-1 and K. lactis)
Procedure: The rate of lactose transport as a function of substrate concentration is shown for two experiments using Lac^+ L1582/pKR1B-LAC4-1 (.smallcircle.--.smallcircle.) and Lac^+ L1582/pKR1B-LAC4-Δ1087(.quadrature.--.quadrature.). For each concentration of lactose, the rate of transport represented the average of samples taken at 30, 60, and 90 seconds.
(§1) After warming the cells to 23° C. the competing compound was added to a final concentration of 50 mM. Thirty seconds later [^14 C] lactose was added to a final concentration of 1 mM and 100 μl samples were filtered 1 and 2 minutes later. […] For K. lactis the experiment was done twice and for S. cerevisiae it was done three times. Averaged values with or without a standard deviation are shown.
(§2) Finally, the lactose transport in LAC^+ S. cerevisiae was determined to be an energy-dependent process, as it is in K. lactis. To measure energy dependence, cells were pre-incubated for 20 minutes with 1 mM 2,4-dinitrophenol at ambient temperature.
(§3) The kinetics of lactose transport were measured to determine if Lac^+ S. cerevisiae transported measurable quantities of lactose and to determine the time scale over which the apparent initial velocity of transport could be measured. Lactose transport was measured using the following procedure. Saturated cultures of cells were obtained by growth at 30° C. in medium A: 10 g yeast extract, 20 g peptone, 100 ml of 20% lactic acid (titrated to pH 4.5 with solid sodium hydroxide) and 100 ml of 20% glycerol per liter, or medium B: 3.4 g yeast nitrogen base (Difco, without amino acids or ammonium sulfate), 10 g ammonium sulfate, 3 g 20 mg adenine, 20 mg uracil, 20 mg leucine, 20 mg histidine, 20 mg tryptophan, 20 mg methionine and 20 mg lysine per liter. Strain MS425/pKR1B of K. lactis was grown on medium A containing 10 μg G418/ml, while S. cerevisiae strains L1582/pKR1B, and YNN27/pKR1B were grown on the same medium containing 200 μg […] Strains L1582 or YNN27 transformed with either plasmid A, B, or C (autonomous or integrated) were grown on medium B.
(§4) This procedure is a modification of the procedure described by Serrano, R. (1977) European J. of Biochem. 80:97-10^2. To prepare cells for transport measurements, a saturated culture was diluted into fresh medium and grown from […]. Cells were harvested by filtration (45 mm dia, 0.45 μm Millipore type HA), washed four times with 10 ml of ice cold distilled water, and then resuspended in 100 mM tartaric acid (titrated to pH 4.2 with sodium hydroxide) at 60 to 100 A600 /ml. At this point cells could be stored at 4° C. for up to 24 hours without loss of transport activity.
(§5) To measure lactose transport, a sample of cells, 0.3 to 1.0 ml, was warmed to 23° C. for 2 min, lactose was added to the desired concentrations and at zero time 0.luCi of D-Glucose-[^14C ]lactose (CFA 278; 58 mCi/mM; Amersham Corp., Lexington, Mass.) was added per 0.3 ml of cells. At the indicated times 100 μl samples were filtered on 25 mm diameter Nuclepore filters (0.4μm pore size; Nuclepore Corp., Pleasanton, Cal.). The filter was washed twice with 5 ml of ice cold distilled water, dried and counted in 4 ml of a toluene-based cocktail containing 250 ml of triton X-100 and 6.5 g p-terphenyl per liter using a liquid scintillation counter. The specific activity, cpm/pmole of lactose, of each reaction was determined by counting a 10 μl sample. Data are expressed as pmoles of intracellular lactose per A600. Background transport was measured using cells that were heated for 3 min at 90° C. Typical background was 25 to 30 cpm.
The lactose transport in Lac^+ S. cerevisiae was determined to be an energy-dependent process, as it is in K. lactis. To measure energy dependence, cells were pre-incubated with 1 mM […] for 20 minutes at ambient temperature and then the uptake of 1 mM ^14 C-lactose was measured. […]

[2] = test system: lactose transport in K. lactis MS425/pKR1B; assay: Lactose transport ([14C]lactose uptake) in K. lactis; assay type: cell-based
Procedure: as §1, §2, §3, §4, §5
The lactose transport in Lac^+ S. cerevisiae was determined to be an energy-dependent process, as it is in K. lactis. To measure energy dependence, cells were pre-incubated with 1 mM […] for 20 minutes at ambient temperature and then the uptake of 1 mM ^14 C-lactose was measured. Lactose transport was inhibited 91% both in the Lac^+ strain of S. cerevisiae , L1582/pKR1B-LAC4-1, and in the K. lactis strain MS425/pKR1B.

[3] = pre-incubated 20 minutes with 1 mM at ambient temperature
[4] = Saccharomyces cerevisiae, competing compound 50 mM, [14C]lactose 1 mM, 23° C., samples at 1 and 2 minutes, average of three experiments with standard deviation
[5] = Kluyveromyces lactis, competing compound 50 mM, [14C]lactose 1 mM, 23° C., samples at 1 and 2 minutes, average of two experiments

Compound | inhibition of lactose transport (stereospecificity, in words) [1] | inhibition at 50000 µM [1, 4] [%] | inhibition at 50000 µM [2, 5] [%] | other results
O=[N+]([O-])c1ccc(O)c([N+](=O)[O-])c1 [2,4-dinitrophenol] | – | – | – | inhibition at 1000 µM ([1]; Saccharomyces cerevisiae, read-out: Lactose transport inhibited (energy dependence), S. cerevisiae L1582/pKR1B-LAC4-1): 91%; Lactose transport inhibition in words (energy dependence), S. cerevisiae L1582/pKR1B-LAC4-1 [1, 3]: inhibited almost completely; inhibition at 1000 µM ([2]; Kluyveromyces lactis, read-out: Lactose transport inhibited (energy dependence), K. lactis MS425/pKR1B): 91%; Lactose transport inhibition in words (energy dependence), K. lactis MS425/pKR1B [2, 3]: inhibited almost completely
O=C[C@@H](O)[C@H](O[C@@H]1O[C@H](CO)[C@H](O)[C@H](O)[C@H]1O)[C@H](O)CO [3-0-β-D-galactosyl-D-arabinose] | strongest inhibition | – | – | % Inhibition of Lactose Transport, S. cerevisiae L1582/pKR1B-LAC4-1 ([1]; competing compound 50 mM, [14C]lactose 1 mM, 23° C., samples at 1 and 2 minutes, average of three experiments with standard deviation): 90 ± 6%; % Inhibition of Lactose Transport, K. lactis MS425/pKR1B ([2]; competing compound 50 mM, [14C]lactose 1 mM, 23° C., samples at 1 and 2 minutes, average of two experiments): 93%
O=[N+]([O-])c1ccc(O[C@H]2O[C@H](CO)[C@H](O)[C@H](O)[C@H]2O)cc1 [4-nitrophenyl-α-D-galactoside] | inhibited only weakly | – | – | –
OC[C@H]1O[C@H](OC[C@H]2OC(O)[C@H](O)[C@@H](O)[C@@H]2O)[C@H](O)[C@@H](O)[C@H]1O (stereo partly drawn) [6-0-α-D-galactosyl-D-glucose] | inhibited only weakly | 10.7 ± 8 | 10 | –
O=C[C@H](O)[C@@H](O)[C@@H](O)[C@H](O)CO [D-galactose] | only moderate inhibition | 24.3 ± 7.2 | 26 | –
OC[C@H]1O[C@@H](S[C@@H]2O[C@H](CO)[C@H](O)[C@H](O)[C@H]2O)[C@H](O)[C@@H](O)[C@H]1O [D-galactosyl-1-thio-β-D-galactoside] | only moderate inhibition | 4.9 ± 4 | 28 | –
OC[C@H]1O[C@@H](O[C@H]2[C@H](O)[C@@H](O)C(O)O[C@@H]2CO)[C@H](O)[C@@H](O)[C@H]1O (stereo partly drawn) [lactose, 4-0-beta-D-galactosyl-D-glucose] | – | – | – | Km ([1]; two experiments of FIG. 4: Lac+ L1582/pKR1B-LAC4-1 and Lac+ L1582/pKR1B-LAC4-Δ1087, rates averaged from 30, 60 and 90 seconds, read-out: apparent Km for lactose transport, Lac+ S. cerevisiae): 970 µM and 1090 µM; Km ([2]; K. lactis strain MS425, read-out: apparent Km for lactose transport, K. lactis strain MS425): 670 µM
